According to patent US4005084A, “Thienylmethyl phenoxy morpholine compounds” (Yoshitomi Pharmaceutical Industries, Ltd., priority 1975, dated 1977):
Like-named read-outs stand apart in the source and are kept apart here.

Experiments:
Shay ulcer = assay: Inhibitory activity on Shay ulcer in rats; type: in vivo, Wistar rats (female); conditions: Rattus norvegicus, sc, read-out: Inhibitory activity on Shay ulcer, ED50
Experimental: Female Wistar rats (140-180 g) were fasted for 44 hours but allowed free access to ater after which the pylorus was ligated as described by Shay et al. in the Gastroenterology, vol. […] Immediately after this ligation, test compound was given subcutaneously. Ten hours later, the animals were sacrificed by an overdose of ether, the stomach was removed and examined for lesions. The logarithm of the sum of each damaged area per rat was referred to as the ulcer index.
The Per Cent Inhibition was calculated as follows: [formula]
The ED50 was read from the semilogarithmic graph on which the Per Cent Inhibition was plotted vs. mg/kg dose.

gastric motility = assay: Inhibitory activity on gastric motility under stress in rats; type: in vivo, Wistar rats (male); conditions: Rattus norvegicus, read-out: Inhibitory activity on gastric motility, ED50
Experimental: The procedure described by K. Watanabe in the Chemical & Pharmaceutical Bulletin, vol.
Male Wistar rats weighing about 250 g were used. After fasting for 18 hours, rats were fixed on their backs by the limbs with thread on boads and immersed into water to the depth of the xiphoid cartilage. Temperature of water was kept at 22° C.
Pressure change in small rubber balloon fixed in the grandular stomach was recorded with pressure transducer (Nihon Koden Kogyo Co., Ltd., MP-4T). The balloon was inserted from the forestomach under light ether anesthesia. Initial pressure was kept at the height of 10 mmHg.
When the effect of anesthesia and of the operation diminished, test compound was administered into the stomach through the polyethylene tube which was previously inserted into the stomach with the balloon.

gastric secretion = assay: Inhibitory activity on gastric secretion in rats; type: in vivo, Wistar rats (male); conditions: Rattus norvegicus, sc, read-out: Inhibitory activity on gastric secretion, ED50
Experimental: After fasting for 48 hours, the stomach of male Wistar rats weighing about 200 g were ligated at the pylorus under light ether anesthesia as described by Shay et al. in the Gastroenterology, vol. 5, pp. 43-61 (1945). Immediately after this ligation, test compound was given subcutaneously. Four hours later, the gastric juice in the stomach was collected and centrifuged for each rat and expressed as ml per 100 g of body weight.
The ED50 was calculated in the same manner as Test (I) on Shay ulcer.

[1] = target: T1, acetylcholine (contracting action of the guinea pig intestine) (Cavia porcellus); assay: Acetylcholine antagonistic activity on contraction of guinea pig intestine; conditions: negative log10 of molar concentration reducing effect of a double dose of acetylcholine to that of a single dose, read-out: Acetylcholine antagonistic activity, pA2 (converted)
T1 construct: contracting action of the guinea pig intestine; from tissue; host or cells: guinea pig intestine
T1 sequence (H0W1Z3 1-590): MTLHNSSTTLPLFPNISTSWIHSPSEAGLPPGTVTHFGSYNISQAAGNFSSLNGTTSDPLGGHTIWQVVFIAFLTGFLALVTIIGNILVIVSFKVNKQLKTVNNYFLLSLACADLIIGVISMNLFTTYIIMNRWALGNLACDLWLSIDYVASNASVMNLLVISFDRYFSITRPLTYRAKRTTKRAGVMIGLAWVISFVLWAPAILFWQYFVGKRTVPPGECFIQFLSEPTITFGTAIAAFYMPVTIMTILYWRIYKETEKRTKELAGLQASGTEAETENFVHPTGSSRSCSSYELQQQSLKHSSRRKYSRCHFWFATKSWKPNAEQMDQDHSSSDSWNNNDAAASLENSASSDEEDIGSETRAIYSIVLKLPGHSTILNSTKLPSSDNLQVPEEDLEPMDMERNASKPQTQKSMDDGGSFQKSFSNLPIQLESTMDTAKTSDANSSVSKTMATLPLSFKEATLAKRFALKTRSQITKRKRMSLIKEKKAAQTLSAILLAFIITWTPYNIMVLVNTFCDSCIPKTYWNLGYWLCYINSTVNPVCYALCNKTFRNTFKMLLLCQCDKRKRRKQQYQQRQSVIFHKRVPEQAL
Experimental: Acetylcholine antagonistic activity was tested according to the method described by J. M. Van Rossum et al. in the Archives Internationales de Pharmacodynamie et de Therapie, vol. 143, pp. 240-246 and pp. 299-330 (1963). The pA2 is the negative of the logarithm, to the base 10, of the molar concentration of the test compound which reduced the effect of a double dose of acetylcholine on contracting action of the guinea pig intestine compared with that of a single dose.

| Structure (SMILES) | ED50 (Shay ulcer; 10 h) [mg/kg] | ED50 (gastric motility) [mg/kg] | ED50 (gastric secretion; 4 h) [mg/kg] | ED50 (Shay ulcer; subcutaneous, immediately after pylorus ligation, examined 10 hours later) [mg/kg] | ED50 (gastric motility; administered into the stomach, stress by water immersion at 22° C) [mg/kg] | Kb [1] [µM] | ED50 (gastric secretion; subcutaneous, immediately after pylorus ligation, gastric juice collected 4 hours later) [mg/kg] |
| --- | --- | --- | --- | --- | --- | --- | --- |
| CN1[C@@H]2CC[C@H]1C[C@@H](OC(=O)C(CO)c1ccccc1)C2 (stereo partly shown) [Atropine, reference compound] | 0.5 | ≤ 3 | 0.12 |  |  |  |  |
| O=C(O)/C=C\C(=O)O.c1csc(Cc2ccccc2OCC2CNCCO2)c1 (stereo not shown) [Compound A, 2-[2-(2-thenyl)phenoxymethyl]morpholine maleate] |  |  |  | 5.5 | 2.1 | 6.31 | 4.5 |
